Test results reported in patent US4442044A, “Process for preparing monoesters and diesters of N-alkyl substituted amino methyl phosphonic acid” (priority 1983, dated 1984).

Key:
Test in all cases: post-emergent herbicidal activity, greenhouse
Format in all cases: in vivo
Wild Buckwheat = conditions: Table II
In short: (§1)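 Seeds or propagules sown in compacted top soil, grown 2–3 weeks in greenhouse, then sprayed with compound solution/suspension containing ~0.4% emulsifier at tabulated rates. Injury scored visually versus untreated controls at ~2 and 4 weeks after treatment, expressed as a herbicidal activity index.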

Sugar Beet = conditions: Table II
In short: as §1

Johnsongrass = conditions: Table I, 4 WAT
In short: as §1

Smartweed = system: Smartweed
In short: as §1

Barnyardgrass = system: Barnyardgrass
In short: as §1

Wheat = conditions: Table II
In short: as §1

Hemp Sesbania = conditions: Table II
In short: as §1

Soybean = conditions: Table II
In short: as §1

Compound | post-emergent herbicidal activity index (Wild Buckwheat; 4 WAT, 0.28 kg/h) | post-emergent herbicidal activity index (Wild Buckwheat; 4 WAT, 1.12 kg/h) | post-emergent herbicidal activity index (Wild Buckwheat; 4 WAT, 5.6 kg/h) | post-emergent herbicidal activity index (Sugar Beet; 4 WAT, 0.28 kg/h) | post-emergent herbicidal activity index (Sugar Beet; 4 WAT, 1.12 kg/h) | post-emergent herbicidal activity index (Sugar Beet; 4 WAT, 5.6 kg/h) | post-emergent herbicidal activity index (Johnsongrass; 5.6 kg/h) | post-emergent herbicidal activity index (Johnsongrass; 11.2 kg/h) | post-emergent herbicidal activity index (Smartweed; Table I, 4 WAT, 11.2 kg/h) | post-emergent herbicidal activity index (Smartweed; Table II, 4 WAT, 0.28 kg/h) | post-emergent herbicidal activity index (Smartweed; Table II, 4 WAT, 1.12 kg/h) | post-emergent herbicidal activity index (Smartweed; Table II, 4 WAT, 5.6 kg/h) | post-emergent herbicidal activity index (Barnyardgrass; Table I, 4 WAT, 5.6 kg/h) | post-emergent herbicidal activity index (Barnyardgrass; Table I, 4 WAT, 11.2 kg/h) | post-emergent herbicidal activity index (Barnyardgrass; Table II, 4 WAT, 0.28 kg/h) | post-emergent herbicidal activity index (Barnyardgrass; Table II, 4 WAT, 1.12 kg/h) | post-emergent herbicidal activity index (Barnyardgrass; Table II, 4 WAT, 5.6 kg/h) | post-emergent herbicidal activity index (Wheat; 4 WAT, 0.28 kg/h) | post-emergent herbicidal activity index (Wheat; 4 WAT, 1.12 kg/h) | post-emergent herbicidal activity index (Wheat; 4 WAT, 5.6 kg/h) | further results
CC(C#N)OP(=O)(O)CNCC(=O)OCCCl (stereo not shown) [Example 7, glycine, N-[[(1-cyanoethoxy)hydroxyphosphinyl]methyl], 2-chloroethyl ester] | 2 (50-74% control) | 2 (50-74% control) | 2 (50-74% control) | 4 (100% control) | 3 (75-99% control) | 4 (100% control) | 1 (25-49% control) | 0 (0-24% control) | 4 (100% control) | 4 (100% control) | 3 (75-99% control) | 4 (100% control) | 3 (75-99% control) | 2 (50-74% control) | 2 (50-74% control) | 3 (75-99% control) | 3 (75-99% control) | 3 (75-99% control) | 3 (75-99% control) | 4 (100% control) | post-emergent herbicidal activity index (Wild Buckwheat; 2 WAT, 0.01 kg/h): 0 (0-24% control); post-emergent herbicidal activity index (Wild Buckwheat; 4 WAT, 0.06 kg/h): 0 (0-24% control); post-emergent herbicidal activity index (Sugar Beet; 2 WAT, 0.01 kg/h): 0 (0-24% control); post-emergent herbicidal activity index (Sugar Beet; 4 WAT, 0.06 kg/h): 0 (0-24% control); post-emergent herbicidal activity index (Smartweed; Table I, 4 WAT, 5.6 kg/h): 4 (100% control); post-emergent herbicidal activity index (Smartweed; Table II, 2 WAT, 0.01 kg/h): 0 (0-24% control); post-emergent herbicidal activity index (Smartweed; Table II, 4 WAT, 0.06 kg/h): 1 (25-49% control); post-emergent herbicidal activity index (Barnyardgrass; Table II, 2 WAT, 0.01 kg/h): 0 (0-24% control); post-emergent herbicidal activity index (Barnyardgrass; Table II, 4 WAT, 0.06 kg/h): 2 (50-74% control); post-emergent herbicidal activity index (Wheat; 2 WAT, 0.01 kg/h): 0 (0-24% control); post-emergent herbicidal activity index (Wheat; 4 WAT, 0.06 kg/h): 1 (25-49% control); post-emergent herbicidal activity index (Hemp Sesbania; 4 WAT, 0.06 kg/h): 0 (0-24% control); post-emergent herbicidal activity index (Hemp Sesbania; 4 WAT, 0.28 kg/h): 3 (75-99% control); post-emergent herbicidal activity index (Hemp Sesbania; 4 WAT, 1.12 kg/h): 2 (50-74% control); post-emergent herbicidal activity index (Hemp Sesbania; 4 WAT, 5.6 kg/h): 4 (100% control); post-emergent herbicidal activity index (Soybean; 2 WAT, 0.01 kg/h): 0 (0-24% control); post-emergent herbicidal activity index (Soybean; 4 WAT, 0.06 kg/h): 0 (0-24% control); post-emergent herbicidal activity index (Soybean; 4 WAT, 0.28 kg/h): 1 (25-49% control); post-emergent herbicidal activity index (Soybean; 4 WAT, 1.12 kg/h): 2 (50-74% control); post-emergent herbicidal activity index (Soybean; 4 WAT, 5.6 kg/h): 3 (75-99% control)
CC(C#N)OP(=O)(O)CNCC(=O)OCc1ccccc1 (stereo not shown) [Example 10, glycine, N-[[(1-cyanoethoxy)hydroxyphosphinyl]methyl]-,phenylmethyl ester] | 1 (25-49% control) | 2 (50-74% control) | 3 (75-99% control) | 3 (75-99% control) | 2 (50-74% control) | 3 (75-99% control) | 0 (0-24% control) | 1 (25-49% control) | 4 (100% control) | 4 (100% control) | 4 (100% control) | 4 (100% control) | 2 (50-74% control) | 3 (75-99% control) | 2 (50-74% control) | 2 (50-74% control) | 3 (75-99% control) | 1 (25-49% control) | 2 (50-74% control) | 2 (50-74% control) | post-emergent herbicidal activity index (Wild Buckwheat; 2 WAT, 0.011 kg/h): 0 (0-24% control); post-emergent herbicidal activity index (Wild Buckwheat; 2 WAT, 0.056 kg/h): 0 (0-24% control); post-emergent herbicidal activity index (Sugar Beet; 2 WAT, 0.011 kg/h): 0 (0-24% control); post-emergent herbicidal activity index (Sugar Beet; 2 WAT, 0.056 kg/h): 0 (0-24% control); post-emergent herbicidal activity index (Smartweed; Table II, 2 WAT, 0.011 kg/h): 0 (0-24% control); post-emergent herbicidal activity index (Smartweed; Table II, 2 WAT, 0.056 kg/h): 0 (0-24% control); post-emergent herbicidal activity index (Barnyardgrass; Table II, 2 WAT, 0.011 kg/h): 0 (0-24% control); post-emergent herbicidal activity index (Barnyardgrass; Table II, 2 WAT, 0.056 kg/h): 0 (0-24% control); post-emergent herbicidal activity index (Wheat; 2 WAT, 0.011 kg/h): 0 (0-24% control); post-emergent herbicidal activity index (Wheat; 2 WAT, 0.056 kg/h): 0 (0-24% control); post-emergent herbicidal activity index (Hemp Sesbania; 2 WAT, 0.011 kg/h): 0 (0-24% control); post-emergent herbicidal activity index (Hemp Sesbania; 2 WAT, 0.056 kg/h): 0 (0-24% control); post-emergent herbicidal activity index (Hemp Sesbania; 4 WAT, 1.12 kg/h): 1 (25-49% control); post-emergent herbicidal activity index (Hemp Sesbania; 4 WAT, 5.6 kg/h): 1 (25-49% control); post-emergent herbicidal activity index (Soybean; 2 WAT, 0.011 kg/h): 0 (0-24% control); post-emergent herbicidal activity index (Soybean; 2 WAT, 0.056 kg/h): 1 (25-49% control); post-emergent herbicidal activity index (Soybean; 4 WAT, 0.28 kg/h): 1 (25-49% control); post-emergent herbicidal activity index (Soybean; 4 WAT, 1.12 kg/h): 1 (25-49% control); post-emergent herbicidal activity index (Soybean; 4 WAT, 5.6 kg/h): 3 (75-99% control)
